{
  "source": "patent EP1818052A1",
  "about": "(Acacia Pharma Limited, priority 2004, dated 2006)",
  "key": {"[1]": {"test_system": "Pax-7 and myogenin", "assay": "Real time PCR of satellite cell activation markers in tibialis muscle after bupivacain damage", "assay_type": "in vivo, rats", "settings": "bupivacain (0.5%) only (C + B)", "excerpt": "PAx-7 and myogenin. Results are mean ± SEM for the number of animals indicated in parentheses."}, "[2]": {"test_system": "tibialis muscles previously injected with bupivacain", "assay": "Muscular damage by bupivacain: tibialis muscle weight", "assay_type": "in vivo", "settings": "rats injected with bupivacain (0.5%) only (C+B)", "excerpt": "Muscular regeneration is a process that implies satellite cells activation, muscle precursors cells that lie adjacent to the skeletal muscle fibers. The muscle was damaged by injecting bupivacain intramuscularly (0.5%). This compound, after muscle damage, stimulates muscular regeneration.\nMuscle weights are expressed as mg/100 g of initial body weight. Results are mean ± SEM for the number of animals indicated in parentheses."}, "[3]": {"test_system": "isolated EDL muscles", "assay": "Proteolytic rate (tyrosine release) in incubated isolated EDL muscles", "assay_type": "cell-based, rats", "settings": "for Proteolytic rate: EDL muscles from control rats, 10^-4 M added to incubation medium, cycloheximide 0.5 mM", "protocol": "(§1) The dissection and isolation of the EDL muscles was carried out under ketamine/xylazine mixture anesthesia. […] Such muscles are able to maintain normal ATP and phosphocreatine concentrations during a 3 hours incubation period. The muscles were incubated in a shaking-thermostatized water bath at 35 °C for 3 hours in 2 ml of Krebs-Henseleit physiological saline pH 7.4, containing 5 mM glucose and 20 mM HEPES. After the addition of the muscles to the vials, the incubation started at a shaking rate of 45 cycles/min.\n(§2) Total protein degradation by the isolated muscles was calculated as the rate of tyrosine released in the last two hours of incubation into the medium in the presence of 0.5 mM cycloheximide in order to block the reincorporation of tyrosine into tissue protein. Tyrosine was measured fluorimetrically. Statistical analysis of the data was performed by means of the Student's t test."}, "[4]": {"test_system": "isolated EDL muscles", "assay": "Protein synthesis rate in incubated isolated EDL muscles", "assay_type": "cell-based, rats", "settings": "for Rate of protein synthesis: EDL muscles from control rats, 10^-4 M added to incubation medium; for increase of the rate of protein synthesis: incubated rat EDL muscles, 10^-4 M in medium", "protocol": "as §1\nSynthetic rates are expressed as nmols of [^14C]phenylalanine incorporated per g and 30 min. […]"}, "[5]": {"test_system": "rats bearing Yoshida AH-130 ascites hepatoma", "settings": "rat, in vivo"}, "[6]": {"test_system": "rats bearing Yoshida AH-130 ascites hepatoma", "settings": "rat, in vivo", "remark": "listed apart in the source"}, "[7]": {"test_system": "isolated EDL muscles", "protocol": "as §1, §2\nRates were measured in presence of cycloheximide (0.5 mM) and are expressed as nmols/g and 2 hours. […]"}, "[8]": {"test_system": "rats bearing Yoshida AH-130 ascites hepatoma", "settings": "rat, in vivo", "remark": "listed apart in the source"}},
  "note": "“And” between values parts separate entries of the source, which are not always exact repeats. Identical values can stand only once. Like-named read-outs stand apart in the source and are kept apart here.",
  "data": [
    {"smiles": "CCCCN1CCCCC1C(=O)Nc1c(C)cccc1C", "note": "(stereo not shown) [B, bupivacain]", "values": [
      {"measurement": "Myogenin gene expression", "setting": "[1]", "result": "142 ± 77"},
      {"measurement": "Pax-7 gene expression", "setting": "[1]", "result": "105 ± 11"},
      {"measurement": "weight of tibialis muscles", "setting": "[2]", "result": "265 ± 4 mg/100 g of initial body weight"}
    ]},
    {"smiles": "CC(C)(C)NCC(O)c1cc(Cl)c(N)c(Cl)c1", "note": "(stereo not shown) [clenbuterol]", "values": [
      {"measurement": "Proteolytic rate", "setting": "[3]", "result": "176 ± 4.4 (8) nmols/g and 2 hours"},
      {"measurement": "Rate of protein synthesis", "setting": "[4]", "result": "9.36 ± 0.5 (9) nmols of [14C]phenylalanine in"},
      {"measurement": "increase of the rate of protein synthesis", "setting": "[4]", "result": 20, "unit": "%"}
    ]},
    {"smiles": "COc1ccc(C[C@H](C)NC[C@@H](O)c2ccc(O)c(NC=O)c2)cc1", "note": "(racemic) [formoterol]", "values": [
      {"measurement": "carcass weigth", "setting": "[5]", "result": "106 ± 1 g/100 g of initial body weight and 97 ± 1 g/100 g of initial body weight"},
      {"measurement": "effect on cancer cachexia", "setting": "[5]", "result": "effective at low doses"},
      {"measurement": "muscle weigths: EDL", "setting": "[5]", "result": "52 ± 1 t mg/100 g of initial body weight and 51 ± 2 t mg/100 g of initial body weight"},
      {"measurement": "muscle weigths: gastrocnemius", "setting": "[5]", "result": "629 ± 9 mg/100 g of initial body weight and 598 ± 16 mg/100 g of initial body weight"},
      {"measurement": "muscle weigths: heart", "setting": "[5]", "result": "431 ± 5 mg/100 g of initial body weight and 417 ± 18 mg/100 g of initial body weight"},
      {"measurement": "muscle weigths: soleus", "setting": "[5]", "result": "43 ± 2 mg/100 g of initial body weight and 43 ± 1 mg/100 g of initial body weight"},
      {"measurement": "muscle weigths: tibialis", "setting": "[5]", "result": "210 ± 5 t mg/100 g of initial body weight and 199 ± 4 t mg/100 g of initial body weight"},
      {"measurement": "Proteolytic rate", "setting": "[3]", "result": "180 ± 5.6 (8) nmols/g and 2 hours"},
      {"measurement": "decrease of the rate of protein degradation (release of tyrosine)", "setting": "[3]; isolated EDL muscles, 10^-4 M in medium", "result": 20, "unit": "%"},
      {"measurement": "efficacy against cachexia", "setting": "[6]", "result": "effective against cachexia"},
      {"measurement": "muscle weights: soleus", "setting": "[6]", "result": "37 ± 1 mg/100 g of initial body weight and 33 ± 2 mg/100 g of initial body weight and 37 ± 2 mg/100 g of initial body weight"},
      {"measurement": "Proteolytic rate", "setting": "[7]; EDL muscles from rats given formoterol 2 mg/kg bw for six consecutive days, cycloheximide 0.5 mM", "result": "159 ± 5 (8) nmols/g and 2 hours"},
      {"measurement": "decrease of proteolytic rate", "setting": "[7]; EDL muscles from rats pre-treated for six consecutive days", "result": 12, "unit": "%"},
      {"measurement": "Rate of protein synthesis", "setting": "[4]", "result": "9.36 ± 0.3 (7) nmols of [14C]phenylalanine in"},
      {"measurement": "increase of the rate of protein synthesis", "setting": "[4]", "result": 20, "unit": "%"},
      {"measurement": "Tumor cell number", "setting": "[8]", "result": "not significantly affected"},
      {"measurement": "adipose tissues weight: brown (interscapular)", "setting": "[8]", "result": "278 ± 21 mg/100 g of initial body weight and 177 ± 11 † *** mg/100 g of initial body weight"},
      {"measurement": "adipose tissues weight: white (dorsal)", "setting": "[8]", "result": "759 ± 126 mg/100 g of initial body weight and 461 ± 49 mg/100 g of initial body weight"},
      {"measurement": "brown adipose tissue weight", "setting": "[8]", "result": "increase"},
      {"measurement": "carcass weight", "setting": "[8]", "result": "113 ± 11 g/100 g of initial body weight and 81 ± 1 g/100 g of initial body weight"},
      {"measurement": "increase in EDL weight", "setting": "[8]", "result": "32% and 16%"},
      {"measurement": "increase in cardiac muscle weight", "setting": "[8]", "result": 21, "unit": "%"},
      {"measurement": "increase in heart weight", "setting": "[8]", "result": 11, "unit": "%"},
      {"measurement": "muscle weight: EDL", "setting": "[8]", "result": "70 ± 3 mg/100 g of initial body weight and 50 ± 1 ††† *** mg/100 g of initial body weight"},
      {"measurement": "muscle weight: gastrocnemius", "setting": "[8]", "result": "859 ± 38 mg/100 g of initial body weight and 639 ± 16 mg/100 g of initial body weight"},
      {"measurement": "muscle weight: heart", "setting": "[8]", "result": "520 ± 15 mg/100 g of initial body weight and 426 ± 17 † ** mg/100 g of initial body weight"},
      {"measurement": "muscle weight: soleus", "setting": "[8]", "result": "55 ± 4 mg/100 g of initial body weight and 40 ± 1 mg/100 g of initial body weight"},
      {"measurement": "muscle weight: tibialis", "setting": "[8]", "result": "275 ± 12 mg/100 g of initial body weight and 204 ± 4 †† *** mg/100 g of initial body weight"},
      {"measurement": "trophic action on soleus", "setting": "[8]", "result": "not significantly affected"},
      {"measurement": "tumor cell content", "setting": "[8]", "result": "3403 ± 88 (5) millions of cells"},
      {"measurement": "white adipose tissue mass", "setting": "[8]", "result": "tendency towards a decrease"}
    ]}
  ]
}
